# Reference: the supplement of paper PMC10307832
# Key:
# Assay in all cases: relative viability (nuclei count vs DMSO), 5 days (fraction); higher = more cells survive
# [1] = compound: CCN1C(=O)C2=CC(=C(N=C2N(C1=O)C3CC3)N)C(=O)N + C[C@]1(O)C[C@@H](c2nc(-c3ccc4ccc(-c5ccccc5)nc4c3)c3c(N)nccn32)C1 [Linsitinib] (partner 1 µM)
# Summary of the method: (§1)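 Relative viability was taken as the ratio of nuclei in treated wells to nuclei in vehicle wells. Lung cancer cell lines in 1536-well plates received compounds by pin tool one day after seeding, either one drug alone or a fixed anchor-drug dose plus five library-drug doses (not always all listed) in √10 steps. Nuclei were counted on 4× images after 5 days of treatment, and values are medians of duplicate plates.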
# [2] = compound: CCN1C(=O)C2=CC(=C(N=C2N(C1=O)C3CC3)N)C(=O)N + NC(=O)Nc1cc(-c2cccc(F)c2)sc1C(=O)N[C@H]1CCCNC1 [AZD7762] (partner 0.2 µM)
# Summary of the method: as §1
# [3] = compound: CCN1C(=O)C2=CC(=C(N=C2N(C1=O)C3CC3)N)C(=O)N + CC(C)C[C@H](NC(=O)[C@H](Cc1ccccc1)NC(=O)c1cnccn1)B(O)O [Bortezomib] (partner 0.002 µM)
# Summary of the method: as §1
# [4] = compound: CCN1C(=O)C2=CC(=C(N=C2N(C1=O)C3CC3)N)C(=O)N + N=C(N)NC(=N)NCCc1ccccc1 [Phenformin] (partner 250 µM)
# Summary of the method: as §1
# [5] = compound: CCN1C(=O)C2=CC(=C(N=C2N(C1=O)C3CC3)N)C(=O)N + Nc1ncn([C@H]2C[C@H](O)[C@@H](CO)O2)c(=O)n1 [Decitabine] (partner 2 µM)
# Summary of the method: as §1
Cell Line,relative viability ([1]; first compound 0.253 µM),relative viability ([1]; first compound 0.8 µM),relative viability ([1]; first compound 2.53 µM),relative viability ([1]; first compound 8 µM),relative viability ([2]; first compound 0.253 µM),relative viability ([2]; first compound 0.8 µM),relative viability ([2]; first compound 2.53 µM),relative viability ([2]; first compound 8 µM),relative viability ([3]; first compound 0.253 µM),relative viability ([3]; first compound 0.8 µM),relative viability ([3]; first compound 2.53 µM),relative viability ([3]; first compound 8 µM),relative viability ([4]; first compound 0.253 µM),relative viability ([4]; first compound 0.8 µM),relative viability ([4]; first compound 2.53 µM),relative viability ([4]; first compound 8 µM),relative viability ([5]; first compound 0.253 µM),relative viability ([5]; first compound 0.8 µM),relative viability ([5]; first compound 2.53 µM),relative viability ([5]; first compound 8 µM)
NCI-H2087,1.02,0.963,0.971,1.04,1.35,1.32,1.36,1.28,0.837,0.845,0.781,0.985,0.439,0.466,0.443,0.398,0.324,0.251,0.297,0.298
NCI-H2126,0.741,0.745,0.656,0.718,1.02,0.967,0.941,0.958,1.14,1.14,1.16,1.05,0.553,0.512,0.522,0.506,0.552,0.544,0.541,0.622
NCI-H2347,1.04,1.03,0.925,0.845,0.769,0.785,0.695,0.817,0.982,0.933,1.19,0.778,0.373,0.424,0.547,0.418,0.722,0.66,0.622,0.643
NCI-H2405,1.05,0.954,1.04,0.988,0.868,–,0.928,0.725,1,1.05,1.01,0.952,0.379,0.388,0.381,0.395,0.771,–,0.718,0.669
NCI-H3122,1.04,0.96,0.982,1.06,0.922,0.967,1.02,0.983,1.04,1.01,1.02,1.01,0.401,0.393,0.394,0.358,0.396,0.432,0.434,0.427
PC-3 [JPC-3],0.982,0.933,0.92,0.919,0.813,–,0.966,0.748,0.874,0.799,0.914,0.801,0.468,0.498,0.508,0.448,0.81,–,0.871,0.886
PC-14,0.96,0.973,0.948,0.929,0.397,0.288,0.513,0.294,0.966,0.932,0.807,0.919,0.507,0.487,0.75,0.603,0.207,0.171,0.244,0.193
RERF-LC-KJ,0.846,0.864,0.843,0.817,1.02,0.826,1.6,1,1.01,1.03,1.02,1.01,0.424,0.411,0.392,0.413,0.772,0.742,0.68,0.593
